Measurements as given in US7547692B2, “Rifamycin analogs and uses thereof” (ActivBiotics Pharma, LLC, priority 2005, dated 2009).
Converted amounts (≈) assume the structure as drawn.

Legend:
S. aureus = assay: MIC assay, S. aureus; format: cell-based
S. pneumo. = assay: MIC assay, S. pneumo.; format: cell-based
E. faecalis = assay: MIC assay, E. faecalis; format: cell-based
H. flu = assay: MIC assay, H. flu; format: cell-based
E. coli = assay: MIC assay, E. coli; format: cell-based

Row | Molecule | MIC S. aureus (S. aureus) [µg/mL] | MIC S. pneumo. (S. pneumo.) [µg/mL] | MIC E. faecalis (E. faecalis) [µg/mL] | MIC H. flu (H. flu) [µg/mL] | MIC E. coli (E. coli) [µg/mL] | melting point [°C]
1 | COC1C=COC2(C)Oc3c(C)c(O)c4c(=O)c(c5oc6cc(N7CC8CCC(C7)N8)cc(O)c6nc-5c4c3C2=O)NC(=O)C(C)=CC=CC(C)C(O)C(C)C(O)C(C)C(O)C1C (centres unmarked) [Compound 10] | 0.015 (≈ 0.0173 µM) | 0.001 (≈ 0.00115 µM) | 0.12 (≈ 0.138 µM) | 0.25 (≈ 0.288 µM) | 4 (≈ 4.6 µM) | –
2 | CO[C@H]1/C=C/OC2(C)Oc3c(C)c(O)c4c(=O)c(c5oc6cc(N7CC8CC7CN8)cc(O)c6nc-5c4c3C2=O)NC(=O)/C(C)=C\C=C\[C@H](C)[C@H](O)[C@@H](C)[C@@H](O)[C@@H](C)[C@H](OC(C)=O)[C@@H]1C (some centres unmarked) [Compound 3] | – | – | – | – | – | > 330
3 | CO[C@H]1/C=C/OC2(C)Oc3c(C)c(O)c4c(=O)c(c5oc6cc(N7CC8CCC7CN8)cc(O)c6nc-5c4c3C2=O)NC(=O)/C(C)=C\C=C\[C@H](C)[C@H](O)[C@@H](C)[C@@H](O)[C@@H](C)[C@H](OC(C)=O)[C@@H]1C (some centres unmarked) [Compound 4] | – | – | – | – | – | > 300
4 | COC1C=COC2(C)Oc3c(C)c(O)c4c(=O)c(c5oc6cc(N7CC8CCC(C7)N8)cc(O)c6nc-5c4c3C2=O)NC(=O)C(C)=CC=CC(C)C(O)C(C)C(O)C(C)C(OC(C)=O)C1C (centres unmarked) [Compound 9] | 0.008 (≈ 0.00878 µM) | 0.00012 (≈ 0.000132 µM) | 1 (≈ 1.1 µM) | 2 (≈ 2.2 µM) | >8 | –
5 | 3′-hydroxy-5′-(3-hydroxy-1-azetidinyl)benzoxazinorifamycin [Compound 1] | 0.002 | 0.00012 | 0.12 | 0.12 | 4 | –
